{"source": "paper PMC8523698", "about": "“Preclinical characterization of an intravenous coronavirus 3CL protease inhibitor for the potential treatment of COVID19” (Nature Communications, 2021)", "key": {"[1]": {"target": "PEDV 3CL^pro (Porcine epidemic diarrhea virus, UniProt P0C6Y4)", "sequence (P0C6Y4 2998-3299)": "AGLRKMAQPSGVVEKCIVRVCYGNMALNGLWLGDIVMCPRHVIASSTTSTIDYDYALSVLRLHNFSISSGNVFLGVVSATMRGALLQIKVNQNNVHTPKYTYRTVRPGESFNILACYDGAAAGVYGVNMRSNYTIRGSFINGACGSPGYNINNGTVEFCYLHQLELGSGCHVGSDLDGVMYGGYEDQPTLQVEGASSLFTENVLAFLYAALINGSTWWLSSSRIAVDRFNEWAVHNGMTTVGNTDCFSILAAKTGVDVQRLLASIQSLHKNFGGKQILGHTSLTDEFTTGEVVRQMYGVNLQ", "format": "biochemical"}, "[2]": {"target": "OC43-CoV 3CL^pro (Human coronavirus OC43, UniProt P0C6X6)", "sequence (P0C6X6 3247-3549)": "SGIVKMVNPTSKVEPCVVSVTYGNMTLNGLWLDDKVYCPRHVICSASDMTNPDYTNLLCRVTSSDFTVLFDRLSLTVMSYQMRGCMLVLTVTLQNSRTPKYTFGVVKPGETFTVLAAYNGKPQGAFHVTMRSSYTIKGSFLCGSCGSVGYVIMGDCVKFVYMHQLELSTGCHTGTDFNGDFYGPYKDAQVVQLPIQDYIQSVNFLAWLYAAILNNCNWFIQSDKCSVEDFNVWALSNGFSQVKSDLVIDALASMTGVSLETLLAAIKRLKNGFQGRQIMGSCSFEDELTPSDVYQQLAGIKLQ", "format": "biochemical"}, "[3]": {"test_system": "Human Chymotrypsin", "assay": "Mammalian protease panel", "format": "biochemical"}, "[4]": {"target": "Human Cathepsin D (Homo sapiens, UniProt P07339)", "sequence (P07339 65-412)": "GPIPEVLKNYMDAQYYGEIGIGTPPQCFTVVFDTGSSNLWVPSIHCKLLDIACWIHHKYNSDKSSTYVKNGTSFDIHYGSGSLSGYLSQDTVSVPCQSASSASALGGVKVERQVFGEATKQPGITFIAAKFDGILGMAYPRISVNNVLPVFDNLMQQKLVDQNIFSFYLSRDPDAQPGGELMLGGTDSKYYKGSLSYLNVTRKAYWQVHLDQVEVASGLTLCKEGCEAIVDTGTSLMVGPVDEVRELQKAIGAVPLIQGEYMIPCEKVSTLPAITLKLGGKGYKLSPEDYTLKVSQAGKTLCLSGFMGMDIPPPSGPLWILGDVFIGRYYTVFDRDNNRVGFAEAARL", "assay": "Mammalian protease panel", "format": "biochemical"}, "[5]": {"test_system": "SARS-CoV-2", "conditions": "cited from earlier work"}, "[6]": {"test_system": "SARS-CoV-2", "set-up": "method as in earlier work", "conditions": "preliminary data; read-out: unbound EC90; cited from earlier work"}, "[7]": {"assay": "LogD shake-flask measurement at pH 7.4", "conditions": "1-octanol/0.1 M sodium phosphate buffer"}, "[8]": {"assay": "PBPK modeling (Simcyp) of DDI with itraconazole"}, "[9]": {"conditions": "300 mg/kg dose group"}, "[10]": {"assay": "Rat 24-h continuous intravenous infusion GLP toxicity study", "format": "in vivo, Sprague-Dawley rats", "conditions": "in vivo"}, "[11]": {"assay": "Cytotoxicity in MRC-5 cells", "conditions": "human"}, "[12]": {"assay": "Metabolic stability and enzyme kinetics in liver S9 (conversion to PF-00835231)", "conditions": "for PF-00835231 formation rate: Human Liver S9 0.03 mg/ml, 20 min, R1-R3; for Km at 20 min / microsomal CLint: human"}}, "note": "Values joined by “and” are separate entries in the source; they are usually repeats but may differ in a detail not shown here. Equal entries are not always repeated. Where two headings read alike, the source gives them in different places.", "data": [{"molecule": "COc1cccc2[nH]c(C(=O)N[C@@H](CC(C)C)C(=O)N[C@@H](C[C@@H]3CCNC3=O)C(=O)CO)cc12", "note": "[PF-00835231]", "values": [{"measurement": "Ki", "setting": "[1]", "result": "0.3 ± 0.11", "unit": "nM"}, {"measurement": "Ki", "setting": "[2]", "result": "0.51 ± 0.12", "unit": "nM"}, {"measurement": "IC50", "setting": "[3]", "result": "> 100", "unit": "µM"}, {"measurement": "IC50", "setting": "[4]", "result": "> 11", "unit": "µM"}, {"measurement": "EC50", "setting": "[5]; P-gp inhibitor 0 uM", "result": 193, "unit": "nM"}, {"measurement": "EC50", "setting": "[5]; P-gp inhibitor 1 uM", "result": 178, "unit": "nM"}, {"measurement": "EC90", "setting": "[5]; human lung carcinoma cells", "result": 440, "unit": "nM"}, {"measurement": "EC90", "setting": "[6]", "result": "< 500", "unit": "nM"}, {"measurement": "logD at 1 h", "setting": "[7]", "result": 1.7}, {"measurement": "fm,CYP3A", "setting": "[8]; Predicted from in vitro phenotyping data", "result": 0.76}, {"measurement": "CLint", "setting": "[8]; Simcyp elimination input, Recombinant, CYP3A4, Pathway 1", "result": 0.147, "unit": "µL/min/pmol"}, {"measurement": "CL renal", "setting": "[8]; human", "result": 50, "unit": "mL/min"}, {"measurement": "clearance", "setting": "[8]; human, plasma", "result": 417, "unit": "mL/min"}, {"measurement": "Cmin unbound exposure", "setting": "[9]", "result": 1700, "unit": "nM"}]}, {"molecule": "COc1cccc2[nH]c(C(=O)N[C@@H](CC(C)C)C(=O)N[C@@H](C[C@@H]3CCNC3=O)C(=O)COP(=O)(O)O)cc12", "note": "[PF-07304814]", "values": [{"measurement": "NOAEL at 24 h", "setting": "[10]; both sexes, Sprague-Dawley, 24 h continuous IV infusion, read-out: no observed adverse effect level (NOAEL)", "result": 1000, "unit": "mg/kg"}, {"measurement": "toxicity findings", "setting": "[10]", "result": "no test article related findings"}, {"measurement": "CC50 at 5 days", "setting": "[11]", "result": "> 100", "unit": "µM"}, {"measurement": "CC50 at 5 days", "setting": "[11]; MRC-5 cells", "result": "> 100", "unit": "µM"}, {"measurement": "CC50 at 5 days", "setting": "[11]; MRC-5 cells, with CP-100356 (efflux inhibitor) 0.5 µM", "result": "> 100", "unit": "µM"}, {"measurement": "PF-00835231 formation rate", "setting": "[12]; substrate 0.207 µM", "result": "100 pmol/min/mg and 108 pmol/min/mg and 109 pmol/min/mg"}, {"measurement": "PF-00835231 formation rate", "setting": "[12]; substrate 3.81 µM", "result": "923 pmol/min/mg and 978 pmol/min/mg and 975 pmol/min/mg"}, {"measurement": "PF-00835231 formation rate", "setting": "[12]; substrate 16.3 µM", "result": "2081 pmol/min/mg and 1997 pmol/min/mg and 1964 pmol/min/mg"}, {"measurement": "PF-00835231 formation rate", "setting": "[12]; substrate 33.8 µM", "result": "2700 pmol/min/mg and 2483 pmol/min/mg and 2383 pmol/min/mg"}, {"measurement": "PF-00835231 formation rate", "setting": "[12]; substrate 70.0 µM", "result": "3450 pmol/min/mg and 3533 pmol/min/mg and 2817 pmol/min/mg"}, {"measurement": "Vmax", "setting": "[12]; Human liver S9, best-fit, Two enzyme: MM + Unsaturable", "result": 2313, "unit": "pmol/min/mg"}, {"measurement": "Vmax", "setting": "[12]; Human, best-fit, Two enzyme: MM + Unsaturable", "result": 2313, "unit": "pmol/min/mg"}, {"measurement": "Km at 20 min", "setting": "[12]; human liver S9, pH 7.5, KM", "result": 6.23, "unit": "µM"}, {"measurement": "Km at 20 min", "setting": "[12]; human liver S9, pH 7.5, Km, Human liver S9, best-fit, Two enzyme: MM + Unsaturable", "result": 6.23, "unit": "µM"}, {"measurement": "microsomal CLint", "setting": "[12]; liver S9, pH 7.5, CLint total, Human liver S9, CLint total = (vmax / KM) + CL", "result": 381, "unit": "µL/min/mg"}, {"measurement": "microsomal CLint", "setting": "[12]; liver S9, pH 7.5, CLint total, Human, (vmax / KM) + CL", "result": 381, "unit": "µL/min/mg"}, {"measurement": "microsomal CLint", "setting": "[12]; liver S9, pH 7.5, CLint,2, low affinity kinetic component", "result": 9.96, "unit": "µL/min/mg"}, {"measurement": "microsomal CLint", "setting": "[12]; liver S9, pH 7.5, CLint,app", "result": 381, "unit": "µL/min/mg"}, {"measurement": "microsomal CLint", "setting": "[12]; liver S9, pH 7.5, CLintu (unbound CLint)", "result": 428, "unit": "µL/min/mg"}, {"measurement": "microsomal CLint", "setting": "[12]; liver S9, pH 7.5, Human liver S9 Clint, clearance input", "result": 381, "unit": "µL/min/mg"}]}]}
